Where two headings read alike, the source gives them in different places.

For data set [1] the following is noted: cited from earlier work.
The nature of data set [2]: Kinetic solubility of neratinib maleate ASD powders, pH 4.0 phthalic acid buffer. The data set is classed as physicochemical. The note with it: pH 4.0 phthalic acid buffer solution, 37 °C, pH 4, aqueous buffer, thermodynamic from solid; crystalline.

On to `CCOc1cc2ncc(C#N)c(Nc3ccc(OCc4ccccn4)c(Cl)c3)c2cc1NC(=O)/C=C/CN(C)C.O=C(O)/C=C\C(=O)O` [Neratinib maleate, (E)-N-(4-((3-chloro-4-(pyridin-2-ylmethoxy)phenyl)amino)-3-cyano-7-ethoxyquinolin-6-yl)-4-(dimethylamino)but-2-enamide maleate], for which the values for the solubility in data set [1] (pH 1.2), in data set [1] (pH approximately 5.0) and in data set [2] were 32900 µg/mL, not above 80 µg/mL and less than 300 µg/mL, respectively. Besides, the “solubility according to the product label” value in data set [1] (pH 1.2) was “sparingly soluble”; in data set [1] (pH 5.0), “insoluble”.

The values above are taken from patent publication US20240335390A9, “PHARMACEUTICAL COMPOSITIONS OF AMORPHOUS SOLID DISPERSIONS AND METHODS OF PREPARATION THEREOF” (Shenzhen Pharmacin Co., Ltd., priority 2020, published 2024).
